Activity calls are given as the source filed them. No rule for the calls is given here.
What follows are compounds tested against Signal transducer and activator of transcription 1-alpha/beta (Homo sapiens) (UniProt P42224) (assay: STAT1 transcription blockade – cell-based, NIH 3T3, luciferase reporter, counter-screen for STAT3 inhibitor project, dose response (AID 1411)). Settings: NIH 3T3 fibroblasts, counterscreen.
Chain of Signal transducer and activator of transcription 1-alpha/beta (Homo sapiens) (P42224 whole entry, looked up): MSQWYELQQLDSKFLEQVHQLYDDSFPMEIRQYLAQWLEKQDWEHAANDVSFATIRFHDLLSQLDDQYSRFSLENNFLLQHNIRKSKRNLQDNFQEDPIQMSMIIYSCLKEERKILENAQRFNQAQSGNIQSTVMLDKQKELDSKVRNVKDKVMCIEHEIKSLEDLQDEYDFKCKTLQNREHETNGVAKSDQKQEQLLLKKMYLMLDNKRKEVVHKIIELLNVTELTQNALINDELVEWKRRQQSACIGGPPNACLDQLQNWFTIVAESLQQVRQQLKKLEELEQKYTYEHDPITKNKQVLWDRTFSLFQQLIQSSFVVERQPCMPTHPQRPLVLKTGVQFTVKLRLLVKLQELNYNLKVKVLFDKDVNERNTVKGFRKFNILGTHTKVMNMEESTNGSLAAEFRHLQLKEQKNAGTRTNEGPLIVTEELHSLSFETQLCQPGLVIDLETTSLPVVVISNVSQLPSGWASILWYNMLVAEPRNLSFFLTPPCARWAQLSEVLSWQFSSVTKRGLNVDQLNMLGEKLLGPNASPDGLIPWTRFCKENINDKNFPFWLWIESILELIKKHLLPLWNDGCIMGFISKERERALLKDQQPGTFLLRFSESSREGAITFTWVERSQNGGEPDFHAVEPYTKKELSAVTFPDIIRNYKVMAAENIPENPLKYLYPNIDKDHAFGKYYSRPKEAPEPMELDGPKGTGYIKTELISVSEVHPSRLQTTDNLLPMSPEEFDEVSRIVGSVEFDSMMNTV

Compound | IC50
CC(=O)c1cn(CC(=O)Nc2ccccc2C)c2ccccc12 | > 55.7 µM (inactive)
COc1ccc(/C=N/NC(=S)Nc2cccc(C(=O)O)c2)cc1 | inactive
O=C(Nc1ccc(N2CCOCC2)nc1)c1ccc(C(F)(F)F)cc1 | > 55.7 µM (inactive)
Cc1nn2cc(-c3ncc(C(F)(F)F)cc3Cl)cnc2c1Br | inactive
Cn1c(CN2CCCCC2)nc2cc(NC(=O)c3cccc(Br)c3)ccc21 | > 55.7 µM (inactive)
COc1ccc2nc3c(cc2c1)c(NC(=O)c1cccs1)nn3CC(C)C | > 55.7 µM (inactive)
CCOc1ncccc1C(=O)OCC(=O)Nc1ccc(-c2nc3ccc(C)cc3s2)cc1 | inactive
CSc1ccc(NC(=O)N2CCN(c3nc4ccccc4s3)CC2)cc1 | > 55.7 µM (inactive)
Nc1cc(-c2ccccc2)nn1Cc1ccc(Cl)cc1 | > 55.7 µM (inactive)
O=C(COC(=O)c1n[nH]c2ccccc12)Nc1ccc(S(=O)(=O)N2CCCC2)cc1 | > 55.7 µM (inactive)
Cc1ccsc1/C=C1\CCc2ccccc2C1=O | 7.89 µM
Cc1cc(NC(=O)c2cc(-c3cccs3)on2)nn1Cc1ccc(Cl)cc1 | > 55.7 µM (inactive)
COc1ccc(CC(=O)Nc2cccc(SC)c2)cc1OC | > 55.7 µM (inactive)
CN1/C(=C\C(=O)C[n+]2ccc(C(=O)c3ccccc3)cc2)C(C)(C)c2ccccc21 | > 55.7 µM (inactive)
NC(=O)C1CCN(c2ccc(S(=O)(=O)N3CCC(Cc4ccccc4)CC3)cn2)CC1 | > 55.7 µM (inactive)
Cc1ccc(N2C(=O)c3ccccc3C2O)nc1 (configuration not stated) | inactive
Clc1ccc(CSc2nnc(Cn3cnc4ccccc43)o2)cc1 | > 55.7 µM (inactive)
CCCCOc1ccc(C(=O)Nc2ccncc2)cc1 | > 55.7 µM (inactive)
c1ccc(C(Cc2nc(-c3ccncc3)no2)c2ccccc2)cc1 | > 55.7 µM (inactive)
CCC(C)NC(=S)Nc1ccc(C(=O)OC)cc1 (configuration not stated) | > 55.7 µM (inactive)
O=C(Oc1ccccc1N1C(=O)C2CCCCC2C1=O)c1ccccc1 (configuration not stated) | > 55.7 µM (inactive)
O=C(Nc1ccc(Cc2ccncc2)cc1)c1ccc(S(=O)(=O)N2CCOCC2)cc1 | > 55.7 µM (inactive)
